Measurements reported in patent publication EP0454060B1, “3-(Mercaptoalkyl)-quinazoline-2,4(1H,3H)-diones, processes for their preparation, and pharmaceutical compositions” (priority 1990, dated 1991).

tested on: Kontaktüberempfindlichkeit vom verzögerten Typ (Effektor-T-Lymphozyten-Aktivität); experiment: Percutaneous test for contact hypersensitivity after DNFB immunisation; assay type: in vivo, Meerschweinchen (Albino-Koloniezucht); conditions: Sensibilisierungsgrad versus control group; 2 mg/kg daily peroral, day +1 to +6; screening values; from 120 stimulatory, below 80 suppressive
From the text: Der Nachweis einer immunregulatorischen Wirksamkeit wurde am Meerschweinchen (Albino-Koloniezucht) und u. a. mit Hilfe folgender Techniken geführt: • Perkutaner Test zum Nachweis einer Kontaktüberempfindlichkeit vom verzögerten Typ (Effektor-T-Lymphozyten-Aktivität), • Takatsy-Test zum Nachweis DNP-spezifischer Serumantikörper (humorale Immunantwort).
Der Nachweis der antiviralen Wirksamkeit erfolgte in vitro an Hühnerembryonalzellen mit Vertretern verschiedener Virusgruppen. 1. Untersuchungen zur immunregulatorischen Wirksamkeit 1.1 Perkutaner Test zum Nachweis einer Kontaktüberempfindlichkeit Die epikutane Applikation von Dinitrofluorbenzol (DNFB) führt beim Meerschweinchen und bei der Maus zur Entwicklung einer verzögerten Überempfindlichkeit, eines Immunstatus, der an die klonale Vermehrung TNP-spezifischer T-Lymphozyten (TDTH-Ly) gebunden ist. Erfolgt nach einer Latenzperiode von mindestens 5 Tagen eine erneute DNFB-Applikation, kommt es zu einer Freisetzung von Lymphokinen durch Reaktion mit den TDTH-Ly dieses Hautbereiches und dadurch zu einer lokal begrenzten Entzündungsreaktion. Sieben Tage nach der Immunisierung mit 1 %igem DNFB wurden die Flanken der Versuchstiere enthaart und durch Aufbringen je eines Tropfens 0,5 %, 0,1 %, 0,05 %, 0,025 % und 0,01 %iger DNFB-Lösung getestet. Die noch positive Konzentration ist dem Grad der Sensibilisierung umgekehrt proportional. Die Testergebnisse ergeben sich aus Stärke und Anzahl der positiven Hautreaktionen, der Stimulierungsindex (SI) aus dem Vergleich der Test- und Kontrolltiere. Die Substanzbehandlung erfolgte peroral. Mittels Schlundsonde wurde eine tägliche Dosis von 2 mg/kg Körpermasse als Suspension in Wasser gegeben. Behandlungsdauer: 1 Tag + 1 (ein Tag nach der Immunisierung) bis +6. Die Kontrolltiere erhielten nur die eingesetzte Lactose. 1.2 Takatsy-Test Nach Immunisierung mit Dinitrofluorbenzol (DNFB) kommt es beim Meerschweinchen auch zur Bildung DNP-spezifischer humoraler Antikörper, die bevorzugt der IgG1-Substanzklasse angehören. 14 Tage nach primärer epikutaner Applikation von DNFB wurde den Versuchstieren Blut durch Herzpunktion entnommen. Die Bestimmung der Antikörperkonzentration erfolgte nach einer von Takatsy beschriebenen Methode (Takatsy, G.: A new method for the preparation of serial dilutions in a quick and accurate way. Kiserletes Orvostudomany 2 (1950) 263 - 396). Als Indikatorzellen wurden TNP-beladene Schaferythrozyten verwendet (Kopplung nach Rittenberg und Pratt; Rittenberg, M. B. and Pratt, K. L.: Antitrinitrophenyl (TNP) plaque assay. Primary response of BALB/c mice to soluble and particulate immunogen. Proc. Soc. exp. Biol. Med., 132 (1969) 575 - 579). 1.3 Ergebnisse Sensibilisierungsgrad (%) und Serumantikörperkonzentration (AK-Titer-Differenz) gegenüber der jeweiligen Kontrollgruppe (Screening-Werte)
Aus den Werten wird deutlich, daß die Verbindungen der allgemeinen Formel I einen gut nachweisbaren Effekt auf die Effektor-T-Lymphozyten-abhängige verzögerte Uberempfindlichkeit haben. Kontaktdermatitis-Werte ab 120 (≙ 20 % Steigerung gegenüber der Kontrolle) bzw. unter 80 werden als Nachweis eines stimulatorischen bzw. suppressorischen Effektes angesehen. Antikörpertiter-Differenzen von >+1 bzw. <-1 verdeutlichen den stimulatorischen bzw. suppressorischen Effekt der Substanzen auf die humorale Immunantwort. 2. Untersuchungen zur immunstimulierenden Wirkung • 2.1 Plaque-Test zum Nachweis von SE-spezifischen IgM- und IgG-PBZ Zur Prüfung immunstimulierender Effekte wurde u. a. auch der Einfluß von Verbindungen der allgemeinen Formel I auf die humorale Immunantwort an Mäusen des Inzuchtstammes CBA und mittels Hämolyse-Plaque-Test (HPT) untersucht. Diese Technik erlaubt die quantitative und getrennte Erfassung IgM- und IgG-Antikörper produzierender Zellen (= Plaque bildende Zellen; PBZ). […]

**Q.** With `COc1cc2[nH]c(=O)n(CC(C)S)c(=O)c2cc1OC` (centres unmarked) [Beispiel 14e, 6,7-Dimethoxy-3-(2-mercaptopropyl)-chinazolin-2,4(1H,3H)-dion] as the molecule, how does the “Kontaktdermatitis (Kontrolle: 100) 24-Stunden-Reaktion” value read?
**A.** Its value is 100%.

**Q.** Which “Kontaktdermatitis (Kontrolle: 100) 24-Stunden-Reaktion” value does the source give for `O=c1[nH]c2ccc(F)cc2c(=O)n1CCCS` [Beispiel 14d, 6-Fluor-3-(3-mercaptopropyl)-chinazolin-2,4(1H,3H)-dion] here?
**A.** The value was 100%.

**Q.** And the “Kontaktdermatitis (Kontrolle: 100) 48-Stunden-Reaktion” value?
**A.** The value was 150%.

**Q.** With `O=c1[nH]c2ccc(Br)cc2c(=O)n1CCS` [Beispiel 5, 6-Brom-3-(2-mercaptoethyl)-chinazolin-2,4(1H,3H)-dion] as the molecule, how does the “Kontaktdermatitis (Kontrolle: 100) 24-Stunden-Reaktion” value read?
**A.** The value was 150%.

**Q.** What about the “Kontaktdermatitis (Kontrolle: 100) 48-Stunden-Reaktion” value of the same molecule?
**A.** The value was 120%.

**Q.** With `CC(S)Cn1c(=O)[nH]c2ccccc2c1=O` (centres unmarked) [Beispiel 7, 3-(2-Mercaptopropyl)-chinazolin-2,4(1H,3H)-dion] as the molecule, how does the “Kontaktdermatitis (Kontrolle: 100) 24-Stunden-Reaktion” value read?
**A.** The value was 230%.

**Q.** `O=c1[nH]c2ccc(Br)cc2c(=O)n1CCCS` [Beispiel 14b, 6-Brom-3-(3-mercaptopropyl)-chinazolin-2 4(1H 3H)-dion] was tested. Which “Kontaktdermatitis (Kontrolle: 100) 24-Stunden-Reaktion” value did it give?
**A.** The value was 105%.

**Q.** What about the “Kontaktdermatitis (Kontrolle: 100) 48-Stunden-Reaktion” value of the same molecule?
**A.** Its value is 100%.

**Q.** What does the source list for `O=c1[nH]c2ccc(Cl)cc2c(=O)n1CCCS` [Beispiel 8, 6-Chlor-3-(3-mercaptopropyl)-chinazolin-2,4(1H,3H)-dion]?
**A.** Kontaktdermatitis (Kontrolle: 100) 24-Stunden-Reaktion: 100%; Kontaktdermatitis (Kontrolle: 100) 48-Stunden-Reaktion: 115%

**Q.** Which “Kontaktdermatitis (Kontrolle: 100) 24-Stunden-Reaktion” value does the source give for `O=c1[nH]c2ccccc2c(=O)n1CCCS` [Beispiel 6, 3-(3-Mercaptopropyl)-chinazolin-2,4(1H,3H)-dion] here?
**A.** Its value is 70%.

**Q.** And the “Kontaktdermatitis (Kontrolle: 100) 48-Stunden-Reaktion” value?
**A.** The value was 40%.

**Q.** How did the “Kontaktdermatitis (Kontrolle: 100) 24-Stunden-Reaktion” value turn out when `Cc1ccc2[nH]c(=O)n(CCS)c(=O)c2c1` [Beispiel 14a, 6-Methyl-3-(2-mercaptoethyl)-chinazolin-2,4(1H,3H)-dion] was run?
**A.** Its value is 60%.

**Q.** And the “Kontaktdermatitis (Kontrolle: 100) 48-Stunden-Reaktion” value?
**A.** The value was 60%.

**Q.** For `COc1cc2[nH]c(=O)n(CCS)c(=O)c2cc1OC` [Beispiel 3, 3-(2-Mercaptoethyl)-6,7-dimethoxychinazolin-2,4(1H,3H)-dion], which “Kontaktdermatitis (Kontrolle: 100) 24-Stunden-Reaktion” value is on record?
**A.** The value was 100%.

**Q.** Which “Kontaktdermatitis (Kontrolle: 100) 24-Stunden-Reaktion” value does the source give for `Cc1ccc2[nH]c(=O)n(CCCS)c(=O)c2c1` [Beispiel 12, 6-Methyl-3-(3-mercaptopropyl)-chinazolin-2,4(1H,3H)-dion] here?
**A.** Its value is 120%.

**Q.** What about the “Kontaktdermatitis (Kontrolle: 100) 48-Stunden-Reaktion” value of the same molecule?
**A.** The value was 130%.

**Q.** What does the source list for `O=c1[nH]c2ccc(F)cc2c(=O)n1CCS` [Beispiel 14c, 6-Fluor-3-(2-mercaptoethyl)-chinazolin-2,4(1H 3H)-dion]?
**A.** Kontaktdermatitis (Kontrolle: 100) 24-Stunden-Reaktion: 90%; Kontaktdermatitis (Kontrolle: 100) 48-Stunden-Reaktion: 105%

**Q.** How did the “Kontaktdermatitis (Kontrolle: 100) 24-Stunden-Reaktion” value turn out when `O=c1[nH]c2ccc(Cl)cc2c(=O)n1CCS` [Beispiel 13, 6-Chlor-3-(2-mercaptoethyl)-chinazolin-2,4(1H,3H)-dion] was run?
**A.** Its value is 120%.

**Q.** What about the “Kontaktdermatitis (Kontrolle: 100) 48-Stunden-Reaktion” value of the same molecule?
**A.** Its value is 130%.

tested on: SE-spezifischer rosettenbildender Zellen; experiment: Rosette test (SE-specific rosettes); assay type: in vivo, Maus (Inzuchtstamm CBA); conditions: oral administration
From the text: Der Nachweis immunstimulierender Effekte wurde weiterhin an der Maus (Inzuchtstamm CBA) und u. a. mit Hilfe folgender Nachweismethoden geführt: • Plaque-Test zum Nachweis von SE-spezifischen IgM- und IgG-PBZ, • Rosettentest.
Aus den Werten wird deutlich, daß die Verbindungen der allgemeinen Formel I einen gut nachweisbaren Effekt auf die Effektor-T-Lymphozyten-abhängige verzögerte Uberempfindlichkeit haben. Kontaktdermatitis-Werte ab 120 (≙ 20 % Steigerung gegenüber der Kontrolle) bzw. unter 80 werden als Nachweis eines stimulatorischen bzw. suppressorischen Effektes angesehen. Antikörpertiter-Differenzen von >+1 bzw. <-1 verdeutlichen den stimulatorischen bzw. suppressorischen Effekt der Substanzen auf die humorale Immunantwort. 2. Untersuchungen zur immunstimulierenden Wirkung • 2.1 Plaque-Test zum Nachweis von SE-spezifischen IgM- und IgG-PBZ Zur Prüfung immunstimulierender Effekte wurde u. a. auch der Einfluß von Verbindungen der allgemeinen Formel I auf die humorale Immunantwort an Mäusen des Inzuchtstammes CBA und mittels Hämolyse-Plaque-Test (HPT) untersucht. Diese Technik erlaubt die quantitative und getrennte Erfassung IgM- und IgG-Antikörper produzierender Zellen (= Plaque bildende Zellen; PBZ). Die Immunisierung mit Schaferythrozyten (SE) erfolgte am Tag 0, die Substanzapplikation (Tagesdosis 1.10^-5 mol/kg Körpermasse; peroral) an den Tagen -1 bis +3 (zur Erfassung der IgM-PBZ) bzw. an den Tagen +1 bis +5 (zur Erfassung der IgG-PBZ). • 2.2 Ergebnisse: Durch tägliche und über 5 Tage gehende Gabe von 2,0 mg der Verbindung gemäß Beispiel 1 pro kg Körpermasse konnte die Zahl der IgM-PBZ auf einen Durchschnittswert von 352 % im Vergleich zur Kontrolle (100 %) gesteigert werden. Die gleiche Form der Behandlung führte zu einer Erhöhung der IgG-PBZ auf 497 % (Kontrolle: 100 %). In beiden Fällen erwies sich die Differenz zur Kontrolle im t-Test mit p < 0,001 als signifikant. […]

**Q.** With `COc1cc2[nH]c(=O)n(CC(C)S)c(=O)c2cc1OC` (centres unmarked) [Beispiel 14e, 6,7-Dimethoxy-3-(2-mercaptopropyl)-chinazolin-2,4(1H,3H)-dion] as the molecule, how does the “SE-spezifischer rosettenbildender Zellen” value read?
**A.** Its value is “signifikante Förderung”.

**Q.** `O=c1[nH]c2ccccc2c(=O)n1CCCS` [Beispiel 6, 3-(3-Mercaptopropyl)-chinazolin-2,4(1H,3H)-dion] was tested. Which “SE-spezifischer rosettenbildender Zellen” value did it give?
**A.** Its value is “signifikante Förderung”.
